A short description of data set [1]: 1,1-Diphenyl-2-picryl-hydrazyl radical (DPPH) assay. It is filed as biochemical. The following applies: Trolox equivalents; mean ± SE of three experiments. The procedure: To 1.5 mL DPPH methanolic solution (0.5 mM) was added 0.750 mL of sample solution proper diluted. Samples absorbance measurements were evaluated with a UV-VIS spectrophotometer (Thermo Spectronic Helios γ, Cambridge, UK) at fixed wavelength of 517 nm. Blank sample was prepared adding methanol to DPPH solution and Trolox was used as standard reference to achieve a calibration curve. The radical-scavenging activity is expressed as inhibition ratio of initial concentration of DPPH radical and is calculated according to the formula: Inhibition percentage (Ip) = [(AB-As)/AB]·100; where AB and As are, respectively, the absorbance values of blank reaction and of the tested sample[25].

Data set [2] in a line: Ferric reducing antioxidant of potency (FRAP) assay. In kind it is biochemical. The settings on record: Trolox equivalents; mean ± SE of three experiments. The procedure:
The ferric reducing ability of each standard solution was measured according to a modified protocol described by Guihua et al.[26]. The reagent for analysis was freshly prepared by mixing the following solutions in the reported ratio 10/1/1 (v:v:v) (i) 0.1 M acetate buffer pH 3.6, (ii) TPTZ (2,4,6-Tri(2-pyridyl)-s-triazine) 10 mmol/L in 40 mmol/HCl, (iii) ferric chloride 20 mmol/L. To a 1.9 mL of reagent were added 0.1 mL of sample proper diluted or solvent when blank was performed. Readings at fixed wavelength of the absorption maximum (593 nm) were done after 30 min, using a UV-VIS spectrophotometer; it was evaluated the absorbance increase of sample solution against the absorbance of blank reaction as parameter to calculate the antioxidant activity. The antioxidant activity is given as Trolox activity since this standard was used to perform the calibration curves.

Data set [3] in a line: Photochemiluminescence (PCL) method, ACL kit. In kind it is biochemical. The settings on record: pure compound; Trolox equivalents; mean ± SE of three experiments. Here is the method:
(§1) PCL assay, based on the methodology of Popov and Lewin[23], was used to measure the antioxidant activity of synthesized compounds with a Photochem® apparatus (Analytik Jena, Leipzig, Germany) against superoxide anion radicals generated from luminol, a photosensitizer, when exposed to UV light (Double Bore® phosphor lamp, output 351 nm, 3 mWatt/cm^2). The antioxidant activity was measured using ACL (Antioxidant Capacity of Liposoluble substance) kit provided by the manufacturer designed to measure the antioxidant activity of lipophilic compounds[24]. […] The areas under the curves were calculated using the PCLsoft control and analysis software. […] This inhibition was used as a parameter for quantification and related to the decrease in the integral of PCL intensities caused by varying concentrations of Trolox. The observed inhibition of the signal was plotted against the concentration of Trolox added to the assay medium. The concentration of the added tested compounds was such that the generated luminescence during the 180-s sampling interval fell within the limits of the standard curve. The antioxidant assay was carried out in triplicate for each sample, and 20 μL of the diluted compound in HPLC-grade methanol (ACL) was sufficient to correspond to the standard curve.

Data set [4] is described as follows: PCL antioxidant activity of finished formulations. The following applies: 3% (w/w) compound in O/W formulation. It is filed as biochemical. The procedure:
as §1
It was decided to use a standard formulation oil in water (O/W).
In particular, molecules with phenolic hydroxyl in the ortho position on the phenyl ring (4, 5, 9, 10 and 13) had better and higher UVA/UVB ratio and critical wavelength, although they have the SPF value less than lead compound. Formulation containing products 2 and 14, which have a phenolic hydroxyl at the para position on the phenyl ring, have shown good values in terms of SPF, greater UVA protection factor, critical wavelength and also higher UVA/UVB ratio than PBSA, but yet lower than the molecules containing hydroxyl on the phenyl ring in ortho. […] Compound 8 has lower SPF than 3, but higher than PBSA; in comparison with 3, molecules 8 and 12 presented higher UVA/UVB ratio and critical wavelength. Regarding compounds with three hydroxyls on phenyl ring, they have good UVA filtering parameters, their critical wavelengths are the highest and SPF is higher than PBSA for molecule 6, while SPF of 15 is slightly lower and decreases further in molecule 11. Thus, it can be observed that parameters are mainly influenced by the number and position of the hydroxyl groups on the phenyl ring rather than the substituent in the 5-position of benzimidazole. Concomitantly, all formulations were analyzed to assess whether the antioxidant power was maintained. […] In Table 4, the antioxidant activity, measured by PCL method, of finished formulations is reported; as it can be seen results were in agreement with that obtained testing the pure compounds. […] Formulations containing compounds 3, 8 and 12 presented highest antioxidant capabilities; these are followed, but with important decrease in antioxidant capacity, by formulations with compounds 6, […] and 15 that have three hydroxyl moieties on phenyl ring.

A short description of data set [5]: Cytotoxicity, MTT test, 72 h. The following applies: human, NCTC-2544 keratinocytes (immortalized, nontumorigenic).
Procedure: (§2) An immortalized, nontumorigenic cell line of human keratinocytes (NCTC-2544) was grown in a DMEM medium (Sigma-Aldrich Milan, Italy), supplemented with 115 units/mL of penicillin G, 115 μg/mL streptomycin, and 10% fetal calf serum (Invitrogen, Milan, Italy). Individual wells of a 96-well tissue culture microtiter plates (Falcon, Becton–Dickinson) were inoculated with 100 μL of complete medium containing 5 × 10^3 NCTC-2544. The plates were incubated at 37 °C in a humidified (5% CO2) incubator for 18 h prior to the experiments.
After medium removal, 100 μL of the drug solution, dissolved in DMSO and diluted in DMEM medium, was added to each well, incubated at 37 °C for 72 h. Final DMSO concentration never exceeded 0.5%. Cell viability was assayed by the MTT (3–(4,5-dimethylthiazol-2-yl)-2,5 diphenyl tetrazolium bromide) test as previously described by Mosmann[27].
The tests were conducted using a specific cell line of human keratinocytes (NCTC-2544). To assess cell viability, in the presence of the study compounds, before and after the irradiation, the MTT assay was performed[27]. The cytotoxicity was checked after 72 h from the incubation of the keratinocytes with compounds; moreover, the same experiments were performed in the presence of the parent PBSA.
A further data set has as its system NCTC-2544 cells. Description: Phototoxicity / cellular photoprotection, UVA or UVB irradiation, MTT test. The following applies: for viability at 50 µM: Homo sapiens, NCTC-2544, light or radiation study, 48 h; for cell survival in relation to the irradiated control: after UVB irradiation 1 J/cm^2.
Setting [6] is: read-out: % Cell survival UVA 20 J/cm^2.
[7] abbreviates: read-out: % Cell survival UVB 0.5 J/cm^2.
[8] abbreviates: read-out: % Cell survival UVB 1 J/cm^2.

Where two headings read alike, the source gives them in different places.

Procedure for NCTC-2544 cells: as §2
Two HPW 125 Philips lamps, mainly emitting at 365 nm, were used for UVA irradiation experiments. The spectral irradiance of the source was 4.0 mWcm^−^2 as measured at the sample level by a Cole-Parmer Instrument Company radiometer (Niles, IL) equipped with a 365-CX sensor. One or two PL-S 9 W/12 Philips lamps (280–370 nm; peak at 315 nm) were used for UVB irradiation experiments. To restrict the incident radiation to the range 305–370 nm, a glass filter (Schott SWG-305) was used. Total energy was detected by the same equipped with a sensor (model CX-312).
After medium removal, 100 μL of the drug solution, dissolved in DMSO and diluted with Hank’s Balanced Salt Solution (HBSS pH =7.2), was added to each well, incubated at 37 °C for 30 min, and then irradiated (20 J/cm^2 for UVA and 0.5 and 1 J/cm^2 for UVB). After irradiation, the solution was replaced with the medium and the plates were further incubated for 48 h. Cell viability was assayed by the MTT [(3–(4,5-dimethylthiazol-2-yl)-2,5 diphenyl tetrazolium bromide)] test as previously described by Mosmann[27].
Molecules were verified for their photocytotoxicity in the same cell line; the cells were treated with 50 μM solutions of compound and after 30 min were irradiated with 20 J/cm^2 UVA or with UVB at two energy amounts: 0.5 J/cm^2 and 1 J/cm^2 UVB. […] After irradiation, the solution was replaced with growth medium and the cells were further incubated for 48 h, and then, cell viability was assessed by MTT assay. […] The phototoxicity of tested molecules was compared with the ratio of cell survival of irradiated keratinocytes without substance (IC = irradiated control).

As for `O=C(O)c1ccc2[nH]c(-c3ccc(O)cc3O)nc2c1` [Compound 13, 2-(2,4-Dihydroxy-phenyl)-1H-benzimidazole-5-carboxylic acid], the DPPH in data set [1] was 32.48 ± 2.38 μmolTrolox/mmol. Besides, in data set [2], the FRAP is given as 31.63 ± 1.96 μmolTrolox/mmol. Further, the PCL in data set [3] turned out to be 160.26 ± 4.09 μmolTrolox/mmol. Also, the “PCL of finished formulation” value in data set [4] was determined as 4.97 ± 0.17 μmol Trolox/g formulation. Besides, in data set [5], the IC50 at 72 h was greater than 50 µM. For the same compound, the viability at 50 µM stood at 80.7 ± 1.3% in the data set on NCTC-2544 cells (setting [6]), 69 ± 0.2% in the data set on NCTC-2544 cells (setting [7]) and 57.5 ± 2.4% with NCTC-2544 cells (setting [8]). In the data set with NCTC-2544 cells, the “cell survival in relation to the irradiated control” value is recorded as “doubled”.
As to `O=C(O)c1ccc2[nH]c(-c3ccc(O)cc3)nc2c1` [Compound 14, 2-(4-Hydroxy-phenyl)-1H-benzimidazole-5-carboxylic acid], the DPPH in data set [1] is listed as 1.185 ± 0.02 μmolTrolox/mmol. For the same compound, in data set [2], the FRAP was 2.62 ± 0.06 μmolTrolox/mmol. Besides, in data set [3], the PCL came out at 6.98 ± 0.27 μmolTrolox/mmol. The “PCL of finished formulation” value in data set [4] amounted to 0.16 ± 0.02 μmol Trolox/g formulation. For the same compound, the half-inhibitory concentration (IC50) at 72 h in data set [5] was greater than 50 µM. Further, the results for the viability at 50 µM with NCTC-2544 cells (setting [6]), with NCTC-2544 cells (setting [7]) and with NCTC-2544 cells (setting [8]) were 76.7 ± 3.4%, 74.2 ± 3.4% and 58.4 ± 2.5%, respectively. Moreover, the “cell survival in relation to the irradiated control” value in the data set with NCTC-2544 cells is reported as “doubled”.
For `O=C(O)c1ccc2[nH]c(-c3ccc(O)c(O)c3O)nc2c1` [Compound 15, 2-(2,3,4-Trihydroxy-phenyl)-1H-benzimidazole-5-carboxylic acid], the DPPH in data set [1] is recorded as 1241.03 ± 9.43 μmolTrolox/mmol. In data set [2], the FRAP is 2355.15 ± 52.55 μmolTrolox/mmol. In addition, the PCL in data set [3] is 1515.65 ± 75.56 μmolTrolox/mmol. In data set [4], the “PCL of finished formulation” value stood at 86.99 ± 6.95 μmol Trolox/g formulation. In data set [5], this compound came in with an IC50 at 72 h greater than 50 µM. Further, the results for the viability at 50 µM with NCTC-2544 cells (setting [6]), in the data set on NCTC-2544 cells (setting [7]) and with NCTC-2544 cells (setting [8]) were 12.2 ± 1.3%, 60.1 ± 2.3% and 25.6 ± 2.7%, respectively. The “phototoxic effect (cell survival vs irradiated control)” value with NCTC-2544 cells (NCTC-2544, UVA/UVB irradiation) is given as “phototoxic effect”.

The values are drawn from publication PMC6010047, “Design, synthesis and biological evaluation of novel hydroxy-phenyl-1H-benzimidazoles as radical scavengers and UV-protective agents” (Journal of Enzyme Inhibition and Medicinal Chemistry, 2017).
